From patent publication US20240116921A1, “LACTAM (HETERO)[…] DERIVATIVES AS INHIBITORS OF ERBB2” (EnLiven Therapeutics, Inc., priority 2020, published 2024) come the findings set out here.

For one assay, the system named is MDA-MB-175VII. Description: Cell viability assay (CellTiter Glo), MDA-MB-175VII. The assay is classed as cell-based. Particulars: Homo sapiens, read-out: IC50, cell viability, MDA MB 175VII. The method, then: (§1) Cells were treated with compounds, and cell viability was measured as a metric of kinase inhibition.
(§2) The Ba/F3 cell line is IL-3-dependent mouse cell line derived from the C3H mouse strain. Ba/F3 cell lines were engineered to express human ERBB2 or EGFR kinases, rendering the cells IL-3 independent. The lines were generated via retroviral transduction utilizing a Moloney murine leukemia virus (MMLV) promoter, and constructs are stably integrated into the cell genome. The sequences of the ERBB2 and EGFR genes used were NCBI Reference Sequences NM_004448.3 and NM_005228.3, respectively.
(§3) Similarly, Ba/F3 cell lines engineered to express EGFR, ERBB2, or ERBB2 mutants were grown, harvested, counted and seeded at 3000 cells per well in 96-well plates. A subset of wells contained media only (low control, “LC”).
(§4) Table B1 provides the growth media and number of cells seeded per well for the each cell line.
(§5) Plates were placed in a 37° C., 5% CO2 incubator for 72 hours. Plates were then removed from the incubator and equilibrated for 15 minutes at room temperature. 40 μl of CellTiter Glo reagent (Promega) was added to measure the relative level of metabolically active cells by quantifying intracellular ATP concentrations. Plates were incubated for 30 minutes at room temperature, and luminescence was measured. Percent viability was normalized to a vehicle control only using the following formula: % viability=100×(Lumsample−LumLC)/(LumHC−Lum^LC). Graphical curves were fitted using a nonlinear regression model with a sigmoidal dose response.

Another assay has as its system BT-474. Kind of assay: Cell viability assay (CellTiter Glo), BT-474. Particulars: Homo sapiens, read-out: IC50, cell viability, BT-474. It counts as cell-based. (In general: Cellular ATP, detected with luciferase, serves as a proxy for viable cell number.)
The target of another assay is Ba/F3 EGFR wt (Homo sapiens, UniProt P00533). Description: Cell viability assay, Ba/F3 EGFR wt. It counts as cell-based, mouse. Particulars: Ba/F3 EGFR wt cells, 72 hours, CellTiter Glo; read-out: IC50, cell viability, Ba/F3 EGFR wt. The protocol:
as §1, §2, §3, §4
Plates were placed in a 37° C., 5% CO2 incubator for 72 hours. Plates were then removed from the incubator and equilibrated for 15 minutes at room temperature. 40 μl of CellTiter Glo reagent (Promega) was added to measure the relative level of metabolically active cells by quantifying intracellular ATP concentrations. Plates were incubated for 30 minutes at room temperature, and luminescence was measured. […]

A further assay relates to A431. Description: Cell viability assay (CellTiter Glo), A431. It counts as cell-based. The settings on record: Homo sapiens, A-431, A431 cells, 72 hours.
The target of assay [1] is Ba/F3 ERBB2 A775_G776insYVMA (Homo sapiens, UniProt P04626, DUP772-775, cells depend on it). Kind of assay: Cell viability assay, Ba/F3 ERBB2 A775_G776insYVMA. It counts as cell-based, mouse. The settings on record: Ba/F3 ERBB2 A775_G776insYVMA cells, 72 hours, CellTiter Glo; Tables B2-B4; read-out: IC50, cell viability, Ba/F3 ERBB2 A775_G776insYVMA. The procedure, abridged: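 IL-3-independent Ba/F3 lines stably expressing the human ERBB2 insertion mutants were seeded at 3000 cells/well and exposed to compounds for 72 h at 37 °C, 5% CO2. Viability was read as ATP by CellTiter-Glo luminescence. Curves were fitted by sigmoidal nonlinear regression.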

Another assay addresses Ba/F3 ERBB2-L755S (Homo sapiens, UniProt P04626, L755S, cells depend on it). Kind of assay: Cell viability assay, Ba/F3 ERBB2-L755S. The settings on record: 72 hours, CellTiter Glo, read-out: IC50, cell viability, Ba/F3 ERBB2-L755S. The assay is classed as cell-based, mouse. The method, then: as §1, §2, §3, §4, §5
A further assay deals with Ba/F3 ERBB2-V777L (Homo sapiens, UniProt P04626, V777L, cells depend on it). Description: Cell viability assay, Ba/F3 ERBB2-V777L. It counts as cell-based, mouse. Particulars: 72 hours, CellTiter Glo, read-out: IC50, cell viability, Ba/F3 ERBB2-V777L. The method, then: as §1, §2, §3, §4, §5
Another assay deals with Ba/F3 ERBB2-L869R (Homo sapiens, UniProt P04626, L869R, cells depend on it). Kind of assay: Cell viability assay, Ba/F3 ERBB2-L869R. It counts as cell-based, mouse. The settings on record: 72 hours, CellTiter Glo, read-out: IC50, cell viability, Ba/F3 ERBB2-L869R. The method, then:
as §1, §2, §3, §4, §5

Assay [2] addresses Ba/F3 ERBB2-P780_Y781insGSP (Homo sapiens, UniProt P04626, DUP778-780, cells depend on it). Kind of assay: Cell viability assay, Ba/F3 ERBB2-P780_Y781insGSP. The assay is classed as cell-based, mouse. Particulars: 72 hours, CellTiter Glo, read-out: IC50, cell viability, Ba/F3 ERBB2-P780_Y781insGSP. The protocol:
as §1, §2, §3, §4
Plates were placed in a 37° C., 5% CO2 incubator for 72 hours. Plates were then removed from the incubator and equilibrated for 15 minutes at room temperature. 40 μl of CellTiter Glo reagent (Promega) was added to measure the relative level of metabolically active cells by quantifying intracellular ATP concentrations. Plates were incubated for 30 minutes at room temperature, and luminescence was measured. […] Graphical curves were fitted using a nonlinear regression model with a sigmoidal dose response.

The target in the next assay is Ba/F3 ERBB2 wt (Homo sapiens, UniProt P04626). Description: Cell viability assay, Ba/F3 ERBB2 wt. The assay is classed as cell-based, mouse. The settings on record: Ba/F3 ERBB2 wt cells, 72 hours, CellTiter Glo; read-out: IC50, cell viability, Ba/F3 ERBB2 wt. The method, then: as §1, §2, §3, §4, §5
Another assay addresses Ba/F3 ERBB2-T798M (Homo sapiens, UniProt P04626, T798M, cells depend on it). Kind of assay: Cell viability assay, Ba/F3 ERBB2-T798M. It counts as cell-based, mouse. The settings on record: 72 hours, CellTiter Glo, read-out: IC50, cell viability, Ba/F3 ERBB2-T798M. The protocol:
as §1, §2, §3, §4, §5

The target of assay [3] is Ba/F3 ERBB2-V777_G778insGC (Homo sapiens, UniProt P04626, INS778CG, cells depend on it). Description: Cell viability assay, Ba/F3 ERBB2-V777_G778insGC. The assay is classed as cell-based, mouse. The settings on record: 72 hours, CellTiter Glo, read-out: IC50, cell viability, Ba/F3 ERBB2-V777_G778insGC. The method, then:
as §1, §2, §3, §4, §5

Another assay has as its target Ba/F3 ERBB2-G776VC (Homo sapiens, UniProt P04626, DELINS776-776VC, cells depend on it). Kind of assay: Cell viability assay, Ba/F3 ERBB2-G776VC. It counts as cell-based, mouse. Particulars: 72 hours, CellTiter Glo, read-out: IC50, cell viability, Ba/F3 ERBB2-G776VC. The method, then: as §1, §2, §3, §4, §5

Read-outs that look alike come from different tables or passages of the source. Where only a bound is given, the exact number is not on record here.

Chain of Ba/F3 EGFR wt (P00533 whole entry, change not shown): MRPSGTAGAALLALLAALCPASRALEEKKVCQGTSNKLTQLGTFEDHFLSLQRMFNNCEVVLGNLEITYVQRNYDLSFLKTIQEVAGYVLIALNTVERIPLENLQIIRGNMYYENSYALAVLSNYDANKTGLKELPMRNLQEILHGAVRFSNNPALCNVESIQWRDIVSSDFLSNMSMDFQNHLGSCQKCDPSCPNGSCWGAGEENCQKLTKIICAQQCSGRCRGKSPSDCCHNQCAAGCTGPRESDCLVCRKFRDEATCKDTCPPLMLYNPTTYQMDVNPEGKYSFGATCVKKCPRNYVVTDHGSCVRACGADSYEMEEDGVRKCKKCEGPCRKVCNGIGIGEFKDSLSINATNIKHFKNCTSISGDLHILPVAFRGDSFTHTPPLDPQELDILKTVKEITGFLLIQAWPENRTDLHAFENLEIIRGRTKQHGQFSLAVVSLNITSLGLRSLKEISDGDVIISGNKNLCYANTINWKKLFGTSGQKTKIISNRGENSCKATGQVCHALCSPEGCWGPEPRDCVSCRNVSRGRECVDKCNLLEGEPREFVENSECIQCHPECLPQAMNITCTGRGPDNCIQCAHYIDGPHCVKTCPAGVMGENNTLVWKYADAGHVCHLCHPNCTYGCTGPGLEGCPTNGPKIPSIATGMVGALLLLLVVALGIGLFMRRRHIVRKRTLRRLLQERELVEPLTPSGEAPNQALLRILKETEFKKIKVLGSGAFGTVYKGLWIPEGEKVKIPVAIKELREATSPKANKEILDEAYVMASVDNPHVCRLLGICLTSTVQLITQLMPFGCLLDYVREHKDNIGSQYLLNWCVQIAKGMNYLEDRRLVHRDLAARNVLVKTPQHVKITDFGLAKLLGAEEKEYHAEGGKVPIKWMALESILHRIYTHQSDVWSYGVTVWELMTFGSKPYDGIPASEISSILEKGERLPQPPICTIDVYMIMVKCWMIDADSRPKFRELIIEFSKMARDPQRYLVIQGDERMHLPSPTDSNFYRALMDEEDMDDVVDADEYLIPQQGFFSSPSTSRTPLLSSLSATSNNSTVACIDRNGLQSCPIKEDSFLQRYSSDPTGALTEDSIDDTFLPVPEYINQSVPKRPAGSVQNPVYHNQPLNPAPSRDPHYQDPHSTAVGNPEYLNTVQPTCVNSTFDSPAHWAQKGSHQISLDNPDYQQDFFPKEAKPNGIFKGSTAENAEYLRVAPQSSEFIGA
Chain of Ba/F3 ERBB2-T798M (P04626 whole entry T798M): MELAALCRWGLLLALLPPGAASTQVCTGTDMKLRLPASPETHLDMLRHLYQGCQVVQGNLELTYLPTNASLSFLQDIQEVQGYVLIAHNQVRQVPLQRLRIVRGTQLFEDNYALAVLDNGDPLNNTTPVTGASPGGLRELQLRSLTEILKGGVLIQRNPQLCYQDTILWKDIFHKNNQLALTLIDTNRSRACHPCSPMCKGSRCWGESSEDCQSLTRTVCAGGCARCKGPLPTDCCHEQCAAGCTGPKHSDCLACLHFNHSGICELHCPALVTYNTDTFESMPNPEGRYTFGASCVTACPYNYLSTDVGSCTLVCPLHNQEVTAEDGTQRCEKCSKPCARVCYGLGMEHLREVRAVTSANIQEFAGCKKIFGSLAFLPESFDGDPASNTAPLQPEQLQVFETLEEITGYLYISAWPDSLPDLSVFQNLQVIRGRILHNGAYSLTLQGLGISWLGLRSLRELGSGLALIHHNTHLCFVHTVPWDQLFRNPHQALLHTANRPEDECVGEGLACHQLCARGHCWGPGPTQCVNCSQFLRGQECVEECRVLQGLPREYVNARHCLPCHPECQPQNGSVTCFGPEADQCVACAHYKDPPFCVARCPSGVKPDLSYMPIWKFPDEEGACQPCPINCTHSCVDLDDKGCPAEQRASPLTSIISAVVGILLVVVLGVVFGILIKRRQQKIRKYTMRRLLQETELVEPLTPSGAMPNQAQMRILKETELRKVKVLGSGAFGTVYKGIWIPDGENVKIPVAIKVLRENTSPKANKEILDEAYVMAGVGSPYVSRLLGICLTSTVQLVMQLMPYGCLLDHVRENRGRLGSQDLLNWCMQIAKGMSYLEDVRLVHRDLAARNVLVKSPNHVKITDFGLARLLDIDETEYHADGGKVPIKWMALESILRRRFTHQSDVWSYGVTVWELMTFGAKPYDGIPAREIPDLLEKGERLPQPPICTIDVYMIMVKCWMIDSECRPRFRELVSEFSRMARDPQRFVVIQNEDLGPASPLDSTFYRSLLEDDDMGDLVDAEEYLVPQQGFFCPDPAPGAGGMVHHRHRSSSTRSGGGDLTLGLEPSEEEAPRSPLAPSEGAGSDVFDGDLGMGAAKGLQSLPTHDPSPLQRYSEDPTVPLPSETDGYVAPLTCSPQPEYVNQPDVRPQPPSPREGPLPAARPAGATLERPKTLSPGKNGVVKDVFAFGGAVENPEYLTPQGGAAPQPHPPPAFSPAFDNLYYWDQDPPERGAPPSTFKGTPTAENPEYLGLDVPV
Chain of Ba/F3 ERBB2-G776VC (P04626 with tags, fused parts or gaps DELINS776-776VC): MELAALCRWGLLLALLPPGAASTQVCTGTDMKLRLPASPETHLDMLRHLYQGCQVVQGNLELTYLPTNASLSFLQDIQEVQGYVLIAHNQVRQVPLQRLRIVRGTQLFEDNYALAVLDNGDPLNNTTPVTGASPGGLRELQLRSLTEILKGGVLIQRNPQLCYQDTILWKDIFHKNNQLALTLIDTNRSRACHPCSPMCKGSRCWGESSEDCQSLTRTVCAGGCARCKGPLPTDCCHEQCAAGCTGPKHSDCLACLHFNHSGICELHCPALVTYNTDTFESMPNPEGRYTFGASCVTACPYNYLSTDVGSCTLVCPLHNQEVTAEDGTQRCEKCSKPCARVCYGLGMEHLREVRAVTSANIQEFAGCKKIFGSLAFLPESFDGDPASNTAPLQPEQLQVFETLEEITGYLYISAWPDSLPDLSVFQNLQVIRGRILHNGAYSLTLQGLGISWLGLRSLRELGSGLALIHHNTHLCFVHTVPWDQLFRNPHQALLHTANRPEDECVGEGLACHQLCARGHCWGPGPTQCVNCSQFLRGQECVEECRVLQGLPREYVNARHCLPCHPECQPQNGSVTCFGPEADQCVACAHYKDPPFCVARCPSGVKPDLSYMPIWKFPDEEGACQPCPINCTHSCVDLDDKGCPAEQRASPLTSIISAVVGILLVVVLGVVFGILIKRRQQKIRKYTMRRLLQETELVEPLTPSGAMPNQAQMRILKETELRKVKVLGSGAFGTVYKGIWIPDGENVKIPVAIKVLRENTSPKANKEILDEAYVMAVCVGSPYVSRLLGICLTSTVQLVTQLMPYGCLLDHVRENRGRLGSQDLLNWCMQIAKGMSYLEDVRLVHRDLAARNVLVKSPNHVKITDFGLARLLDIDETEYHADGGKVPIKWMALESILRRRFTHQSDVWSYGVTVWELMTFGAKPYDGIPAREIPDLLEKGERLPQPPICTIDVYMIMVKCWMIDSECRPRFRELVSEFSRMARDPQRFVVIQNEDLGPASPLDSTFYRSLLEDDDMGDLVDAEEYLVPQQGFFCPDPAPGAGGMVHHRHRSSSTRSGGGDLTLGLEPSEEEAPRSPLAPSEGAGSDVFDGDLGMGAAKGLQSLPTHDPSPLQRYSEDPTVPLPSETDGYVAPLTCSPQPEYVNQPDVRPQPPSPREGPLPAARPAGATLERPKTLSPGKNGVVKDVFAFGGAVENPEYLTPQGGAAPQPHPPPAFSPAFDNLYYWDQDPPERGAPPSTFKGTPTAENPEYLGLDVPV
Chain of Ba/F3 ERBB2-P780_Y781insGSP (P04626 with tags, fused parts or gaps DUP778-780): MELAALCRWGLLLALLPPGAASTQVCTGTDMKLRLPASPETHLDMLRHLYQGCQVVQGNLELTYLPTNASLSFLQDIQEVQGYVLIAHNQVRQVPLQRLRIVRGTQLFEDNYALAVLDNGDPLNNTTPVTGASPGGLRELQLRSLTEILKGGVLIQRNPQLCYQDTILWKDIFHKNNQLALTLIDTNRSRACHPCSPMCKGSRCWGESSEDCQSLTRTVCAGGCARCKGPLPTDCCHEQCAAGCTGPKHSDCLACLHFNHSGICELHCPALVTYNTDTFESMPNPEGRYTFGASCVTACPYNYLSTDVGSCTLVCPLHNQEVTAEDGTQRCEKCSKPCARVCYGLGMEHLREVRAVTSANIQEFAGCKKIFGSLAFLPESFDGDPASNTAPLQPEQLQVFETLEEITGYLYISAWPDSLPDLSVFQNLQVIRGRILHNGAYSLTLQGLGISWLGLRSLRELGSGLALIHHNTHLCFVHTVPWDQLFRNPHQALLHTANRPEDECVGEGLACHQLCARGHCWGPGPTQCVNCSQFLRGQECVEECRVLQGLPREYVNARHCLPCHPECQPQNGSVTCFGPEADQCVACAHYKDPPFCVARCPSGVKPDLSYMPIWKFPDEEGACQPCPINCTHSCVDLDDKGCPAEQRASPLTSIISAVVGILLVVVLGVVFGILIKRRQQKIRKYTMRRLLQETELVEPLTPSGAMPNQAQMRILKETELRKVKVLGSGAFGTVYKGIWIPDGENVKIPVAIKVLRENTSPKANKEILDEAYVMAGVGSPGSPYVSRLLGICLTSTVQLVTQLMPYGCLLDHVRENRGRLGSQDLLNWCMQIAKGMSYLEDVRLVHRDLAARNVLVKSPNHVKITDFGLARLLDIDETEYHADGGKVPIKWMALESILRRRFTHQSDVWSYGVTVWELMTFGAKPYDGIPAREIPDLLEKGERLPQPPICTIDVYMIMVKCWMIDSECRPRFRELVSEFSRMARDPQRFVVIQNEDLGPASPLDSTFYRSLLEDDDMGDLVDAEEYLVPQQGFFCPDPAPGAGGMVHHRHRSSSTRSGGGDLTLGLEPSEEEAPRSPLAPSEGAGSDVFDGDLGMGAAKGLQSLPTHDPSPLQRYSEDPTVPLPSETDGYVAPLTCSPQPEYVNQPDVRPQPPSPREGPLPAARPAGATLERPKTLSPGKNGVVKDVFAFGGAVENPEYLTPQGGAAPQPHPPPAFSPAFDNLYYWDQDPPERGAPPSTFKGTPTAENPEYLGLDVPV

For the compound `CCOc1cc2ncc(C#N)c(Nc3ccc(OCc4ccccn4)c(Cl)c3)c2cc1NC(=O)/C=C/CN(C)C` [Neratinib, neratinib, reference compound], the IC50 – broadly, the point on the concentration scale where inhibition reaches its midpoint – turned out to be 7.1 nM in the assay with MDA-MB-175VII (MDA-MB-175-VII, 72 h) and 2.2 nM with BT-474 (BT-474, 72 h).

Regarding `Cc1cc(Nc2ncnc3ccc(NC4=NC(C)(C)CO4)cc23)ccc1Oc1ccn2ncnc2c1` [Tucatinib, tucatinib, reference compound], at Ba/F3 EGFR wt, the GI50 is above 10000 nM. Also, the IC50 is 89 nM with MDA-MB-175VII (MDA MB 175VII cells, 72 hours, CellTiter Glo) and above 10000 nM in the assay on A431.

Regarding `C=C1CCN(c2ccc3ncnc(Nc4ccc(Oc5ccc(C)nc5)c(C)c4)c3c2)C1=O` [Compound 3, 1-[4-([3-methyl-4-[(6-methylpyridin-3-yl)oxy]phenyl]amino)quinazolin-6-yl]-3-methylidenepyrrolidin-2-one], the GI50 is 202 nM in assay [1]; 172 nM on Ba/F3 ERBB2-L755S; 4.7 nM at Ba/F3 ERBB2-V777L; 47 nM at Ba/F3 ERBB2-L869R; 13 nM in [2]; 11 nM on Ba/F3 ERBB2 wt. Moreover, the results for the GI50 (at Ba/F3 ERBB2-T798M; in assay [3]; on Ba/F3 ERBB2-G776VC) were 656 nM, 3.8 nM and 40 nM, respectively. Further, the IC50 in the assay with BT-474 (BT-474 cells, 72 hours, CellTiter Glo) is 19.7 nM; with A431, 1140 nM.
